From patent US9416141B2 (University of Washington through its Center for …, priority 2012, dated 2016)
Counter-ions that a name gives are not always drawn.

System: hair cells
Test: Hair cell toxicity assay in zebrafish (neomycin-induced hair cell death, DASPEI staining of neuromasts)
Type: in vivo
Conditions: Danio rerio; for Emax at 8.3 µM: maximum observed @ 8.3 μM test compound; for Emax at 8.3 µM / Emax at 2.8 µM / Emax at 25 µM: 200 micromolar neomycin, read-out: Max HC Protection (HCmax, % hair cell survival); for EC50: zebrafish larvae 5-7 dpf, 1 h pre-treatment, then 200 micromolar neomycin + test compound 30 min, read-out: HC50 (concentration that would produce 50% hair cell survival); for Emax at 2.8 µM: maximum observed @ 2.8 μM test compound; for Emax at 25 µM: maximum observed @ 25 μM test compound
Procedure, shortened: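 Hair cell survival, as % of untreated controls, came from DASPEI scoring (0-2 each, ten neuromasts on one side) in 5-7 dpf larvae. These had 1 h compound pre-exposure (0.010-25 μM), then 200 μM neomycin with compound for 30 min. HCmax is peak protection; HC50 interpolated between flanking concentrations only when ≥50% survive.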

Row | SMILES | Emax at 8.3 µM [%] | EC50 [µM] | Emax at 2.8 µM [%] | Emax at 25 µM [%]
1 | CCN1CCc2c(sc(NC(=O)Nc3ccc(Cl)cc3)c2C(=O)NCC(F)(F)F)C1 [Example 96, 2-[3-(4-Chlorophenyl)ureido]-6-ethyl-N-(2,2,2-trifluoroethyl)-4,5,6,7-tetrahydrothieno[2,3-c]pyridine-3-carboxamide hydrochloride] | 57 | 1 to 10 | – | –
2 | CC(C)OC(=O)CC[N+]1(C)CCc2c(sc(NC(=O)Nc3ccc(Cl)cc3)c2C(N)=O)C1 (stereo not shown) [Example 159, 3-Carbamoyl-2-[3-(4-chlorophenyl)ureido]-6-(3-isopropoxy-3-oxopropyl)-6-methyl-4,5,6,7-tetrahydrothieno[2,3-c]pyridin-6-ium iodide] | – | < 1 | 84 | –
3 | C[N+]1(CC2CCC2)C2CCC1c1sc(NC(=O)Nc3ccc(Cl)cc3)c(C(N)=O)c1C2 (racemic) [Example 189, (+/−)-3-Carbamoyl-2-[3-(4-chlorophenyl)ureido]-9-(cyclobutylmethyl)-9-methyl-5,6,7,8-tetrahydro-4H-thienocyclohepten-5,8-iminium trifluoroacetate] | – | 1 to 10 | – | 96
4 | CCN1CCc2sc(NC(=O)Nc3ccc(Cl)cc3)c(C(N)=O)c2CC1 [Example 115, 2-[3-(4-Chlorophenyl)ureido]-6-ethyl-5,6,7,8-tetrahydro-4H-thieno[2,3-d]azepine-3-carboxamide hydrochloride] | – | 1 to 10 | – | 99
5 | CC(=O)NCCN1CCc2c(sc(NC(=O)Nc3ccc(Cl)cc3)c2C(N)=O)C1 [Example 15, 6-(2-Acetamidoethyl)-2-[3-(4-chlorophenyl)ureido]-4,5,6,7-tetrahydrothieno[2,3-c]pyridine-3-carboxamide trifluoroacetate] | – | > 10 | – | 57
6 | CCN1CCc2c(sc(NC(=O)Nc3ccc(C(=O)O)cc3)c2C(N)=O)C1 [Example 32, 4-[3-(3-Carbamoyl-6-ethyl-4,5,6,7-tetrahydrothieno[2,3-c]pyridin-2-yl)ureido]benzoic acid trifluoroacetate] | – | – | – | 19
7 | CCN1CCc2c(sc(NC(=O)Nc3cccc(F)c3)c2C(N)=O)C1 [Example 71, 6-Ethyl-2-[3-(3-fluorophenyl)ureido]-4,5,6,7-tetrahydrothieno[2,3-c]pyridine-3-carboxamide hydrochloride] | – | – | – | 45
8 | NC(=O)c1c(NC(=O)Nc2ccc(Cl)cc2)sc2c1CCN(CCCNC(=O)CCc1cccc3ccccc13)C2 [Example 214, 2-{[(4-chlorophenyl)carbamoyl]amino}-6-{3-[3-(naphthalen-1-yl)propanamido]propyl}-4H,5H,6H,7H-thieno[2,3-c]pyridine-3-carboxamide] | – | < 1 | 95 | –
9 | CC(C)NC(=O)CC[N+]1(C)CCc2c(sc(NC(=O)Nc3ccc(Cl)cc3)c2C(N)=O)C1 (stereo not shown) [Example 164, 3-Carbamoyl-2-[3-(4-chlorophenyl)ureido]-6-[3-(isopropylamino)-3-oxopropyl]-6-methyl-4,5,6,7-tetrahydrothieno[2,3-c]pyridin-6-ium trifluoroacetate] | – | 1 to 10 | 60 | –
10 | CN1C(C)(C)Cc2c(sc(NC(=O)Nc3ccc(Cl)cc3)c2C(N)=O)C1(C)C [Example 120, 2-[3-(4-chlorophenyl)ureido]-5,5,6,7,7-pentamethyl-4,5,6,7-tetrahydrothieno[2,3-c]pyridine-3-carboxamide hydrochloride] | – | 1 to 10 | 81 | –
11 | C#CCCC(=O)NCCCN1CCc2c(sc(NC(=O)Nc3ccc(Cl)cc3)c2C(N)=O)C1 [Example 216, 2-{[(4-chlorophenyl)carbamoyl]amino}-6-[3-(pent-4-ynamido)propyl]-4H,5H,6H,7H-thieno[2,3-c]pyridine-3-carboxamide] | – | 1 to 10 | – | 97
12 | C[N+]1(CC23CC4CC(CC(C4)C2)C3)CCc2c(sc(NC(=O)Nc3ccc(Cl)cc3)c2C(N)=O)C1 (stereo not shown) [Example 197, 6-[(3r,5r,7r)-Adamantan-1-ylmethyl]-3-carbamoyl-2-[3-(4-chlorophenyl)ureido]-6-methyl-4,5,6,7-tetrahydrothieno[2,3-c]pyridin-6-ium chloride] | – | < 1 | 93 | –
13 | C[N+]12CCCCC1Cc1c(sc(NC(=O)Nc3ccc(Cl)cc3)c1C(N)=O)C2 (racemic) [Example 177, (+/−)-3-Carbamoyl-2-[3-(4-chlorophenyl)ureido]-9-methyl-4,4a,5,6,7,8,9,10-octahydrothieno[3,2-b]quinolizin-9-ium iodide] | – | 1 to 10 | – | 97
14 | CC(C(=O)O)N1CCc2c(sc(NC(=O)Nc3ccc(Cl)cc3)c2C(N)=O)C1 (racemic) [Example 62, (+/−)-2-{3-Carbamoyl-2-[3-(4-chlorophenyl)ureido]-4,5-dihydrothieno[2,3-c]pyridin-6(7H)-yl}propanoic acid hydrochloride] | – | – | – | 29
15 | CC(C)NC(=O)CCN1CCc2c(sc(NC(=O)Nc3ccc(Cl)cc3)c2C(N)=O)C1 [Example 57, 2-[3-(4-Chlorophenyl)ureido]-6-[3-(isopropylamino)-3-oxopropyl]-4,5,6,7-tetrahydrothieno[2,3-c]pyridine-3-carboxamide hydrochloride] | – | 1 to 10 | 50 | –
16 | CCN1CCc2c(sc(NC(=O)Nc3ccc(Cl)cc3)c2-c2nnco2)C1 [Example 104, 1-(4-chlorophenyl)-3-[6-ethyl-3-(1,3,4-oxadiazol-2-yl)-4,5,6,7-tetrahydrothieno[2,3-c]pyridin-2-yl]urea hydrochloride] | – | – | – | 0
17 | NC(=O)c1c(NC(=O)Nc2ccc(Cl)cc2)sc2c1CCN(C1CCOCC1)C2 [Example 5, 2-[3-(4-Chlorophenyl)ureido]-6-(tetrahydro-2H-pyran-4-yl)-4,5,6,7-tetrahydrothieno[2,3-c]pyridine-3-carboxamide hydrochloride] | 89 | 1 to 10 | – | –
18 | CN1C2CCC1c1sc(NC(=O)Nc3ccc(Cl)cc3)c(C(N)=O)c1C2 (single isomer, unassigned; (-)) [Example 127, (−)-2-[3-(4-chlorophenyl)ureido]-9-methyl-5,6,7,8-tetrahydro-4H-5,8-epiminocyclohepta[b]thiophene-3-carboxamide hydrochloride] | – | 1 to 10 | – | –
19 | CC(C)(C)C[N+]1(C)CCc2c(sc(NC(=O)Nc3ccc(Cl)c4ccccc34)c2C(N)=O)C1 (stereo not shown) [Example 183, 3-Carbamoyl-2-[3-(4-chloronaphthalen-1-yl)ureido]-6-methyl-6-neopentyl-4,5,6,7-tetrahydrothieno[2,3-c]pyridin-6-ium chloride] | 70 | 1 to 10 | – | –
20 | NC(=O)c1c(NC(=O)Nc2ccc(Cl)cc2)sc2c1CCN(CCCNC(=O)C1CC1)C2 [Example 215, 2-{[(4-chlorophenyl)carbamoyl]amino}-6-[3-(cyclopropylformamido)propyl]-4H,5H,6H,7H-thieno[2,3-c]pyridine-3-carboxamide] | – | 1 to 10 | – | 95
21 | CC(C)(C)OC(=O)N1CCC(N2CCc3c(sc(NC(=O)Nc4ccc(Cl)cc4)c3C(N)=O)C2)C1 (stereo not shown) [Example 4, tert-Butyl 3-{3-carbamoyl-2-[3-(4-chlorophenyl)ureido]-4,5-dihydrothieno[2,3-c]pyridin-6(7H)-yl}pyrrolidine-1-carboxylate] | 56 | 1 to 10 | – | –
